Assay results published in ChEMBL document CHEMBL3868641, “Discovery, characterization and biological evaluation of a novel (R)-4,4-difluoropiperidine scaffold as dopamine receptor 4 (D4R) antagonists” (Bioorg Med Chem Lett, 2016).

Test system: not listed separately
Experiment: Displacement of [3H]Spiperone from recombinant human Dopamine D4.4 receptor expressed in CHO-K1 cell membranes at 10 uM after 120 mins relative to control
Conditions: not given

| SMILES | inhibition [%] |
| --- | --- |
| FC1(F)CCN(Cc2ccc(Cl)cc2)CC1CCc1ccccc1 (racemic) | 80 |
| Fc1ccccc1CCC1CN(Cc2c[nH]c3cc(Cl)ccc23)CCC1(F)F (racemic) | 96 |
| COc1ccc(CCC2CN(Cc3c[nH]c4cc(F)ccc34)CCC2(F)F)cc1 (racemic) | 91 |
| COc1ccc(CN2CCC(F)(F)C(CCc3ccccc3)C2)cc1F (racemic) | 88 |
| Fc1ccc(CCC2CN(Cc3ccc(Cl)cc3)CCC2(F)F)cc1 (racemic) | 95 |
| COc1ccc(CN2CCC(F)(F)C(CCc3ccccc3)C2)cc1 (racemic) | 87 |
| COc1ccccc1CCC1CN(Cc2c[nH]c3cc(F)ccc23)CCC1(F)F (racemic) | 94 |
| FC1(F)CCN(Cc2cccc3cc[nH]c23)CC1CCc1ccccc1 (racemic) | 88 |
| COc1ccc2[nH]cc(CN3CCC(F)(F)C(CCc4ccccc4)C3)c2c1 (racemic) | 91 |
| COc1ccccc1CCC1CN(Cc2ccc(Cl)cc2)CCC1(F)F (racemic) | 75 |

Test system: not listed separately
Experiment: Intrinsic clearance in human liver microsomes by HPLC/MS analysis
Type: ADME
Conditions: read-out: CLH

| SMILES | CLint scaled [mL/min/kg] |
| --- | --- |
| Fc1ccccc1CC[C@@H]1CN(Cc2c[nH]c3cc(Cl)ccc23)CCC1(F)F | 156 |
| Fc1ccc2c(CN3CCC(F)(F)[C@H](CCc4ccccc4)C3)c[nH]c2c1 | 111 |

Test system: not listed separately
Experiment: Ratio of drug level in brain to plasma in rat at 0.25 mg/kg, iv administered through cassette dosing after 0.25 hrs by LC/MS/MS analysis
Type: ADME, organism-based
Conditions: not given

| SMILES | Kp at 0.25 h |
| --- | --- |
| Fc1ccccc1CC[C@@H]1CN(Cc2c[nH]c3cc(Cl)ccc23)CCC1(F)F | 0.4 |
| Fc1ccc2c(CN3CCC(F)(F)[C@H](CCc4ccccc4)C3)c[nH]c2c1 | 3.5 |
| Fc1ccc2c(CN3CCC(F)(F)[C@H](CCc4ccccc4F)C3)c[nH]c2c1 | 1.3 |

Test system: not listed separately
Experiment: Unbound fraction in rat plasma by HPLC/MS based equilibrium dialysis method
Type: ADME, cell-free
Conditions: not given

| SMILES | fraction unbound |
| --- | --- |
| Fc1ccccc1CC[C@@H]1CN(Cc2c[nH]c3cc(Cl)ccc23)CCC1(F)F | 0.002 |
| Fc1ccc2c(CN3CCC(F)(F)[C@H](CCc4ccccc4)C3)c[nH]c2c1 | 0.014 |
| Fc1ccc2c(CN3CCC(F)(F)[C@H](CCc4ccccc4F)C3)c[nH]c2c1 | 0.05 |

Test system: CHO-K1
Experiment: Displacement of [3H] Spiperone from recombinant human Dopamine D4.4 receptor expressed in CHO-K1 cell membranes at 0.1 uM after 120 mins relative to control
Conditions: not given

| SMILES | inhibition [%] |
| --- | --- |
| COc1ccc2c(CN3CCC(F)(F)[C@@H](CCc4ccc(F)cc4)C3)c[nH]c2c1 | 64 |
| Fc1ccc2c(CN3CCC(F)(F)[C@H](CCc4ccccc4F)C3)c[nH]c2c1 | 85 |

Test system: not listed separately
Experiment: Intrinsic clearance in rat liver microsomes by HPLC/MS analysis
Type: ADME
Conditions: read-out: CLH

| SMILES | CLint scaled [mL/min/kg] |
| --- | --- |
| Fc1ccccc1CC[C@@H]1CN(Cc2c[nH]c3cc(Cl)ccc23)CCC1(F)F | 1300 |
| Fc1ccc2c(CN3CCC(F)(F)[C@H](CCc4ccccc4)C3)c[nH]c2c1 | 2490 |

Molecular target: D(1A) dopamine receptor (Homo sapiens) (UniProt P21728)
Sequence (P21728 whole entry): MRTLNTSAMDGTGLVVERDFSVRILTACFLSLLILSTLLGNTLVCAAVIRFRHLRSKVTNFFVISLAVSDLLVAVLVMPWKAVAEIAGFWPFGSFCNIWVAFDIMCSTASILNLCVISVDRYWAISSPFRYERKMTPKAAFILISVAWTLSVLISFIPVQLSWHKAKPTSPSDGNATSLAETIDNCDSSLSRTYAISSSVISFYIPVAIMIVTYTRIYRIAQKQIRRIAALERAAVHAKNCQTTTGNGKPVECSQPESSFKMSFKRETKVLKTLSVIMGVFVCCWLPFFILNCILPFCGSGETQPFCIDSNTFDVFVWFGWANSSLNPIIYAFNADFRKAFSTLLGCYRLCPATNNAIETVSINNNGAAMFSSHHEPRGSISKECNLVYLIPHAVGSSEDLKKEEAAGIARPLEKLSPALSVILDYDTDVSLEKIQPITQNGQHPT
Experiment: Displacement of [3H]SCH-23390 from recombinant human Dopamine D1 receptor expressed in CHO cell membranes at 10 uM after 120 mins relative to control
Conditions: not given

| SMILES | inhibition [%] |
| --- | --- |
| Fc1ccc(CC[C@H]2CN(Cc3c[nH]c4cc(F)ccc34)CCC2(F)F)cc1 | < 50 |
| Fc1ccc2c(CN3CCC(F)(F)[C@@H](CCc4ccccc4F)C3)c[nH]c2c1 | < 50 |
| Fc1ccc2c(CN3CCC(F)(F)[C@H](CCc4ccccc4F)C3)c[nH]c2c1 | < 50 |
| Fc1ccccc1CCC1CN(Cc2c[nH]c3cc(Cl)ccc23)CCC1(F)F (racemic) | < 50 |
| COc1ccc2[nH]cc(CN3CCC(F)(F)C(CCc4ccccc4)C3)c2c1 (racemic) | < 50 |

Molecular target: D(3) dopamine receptor (Homo sapiens) (UniProt P35462)
Sequence (P35462 whole entry): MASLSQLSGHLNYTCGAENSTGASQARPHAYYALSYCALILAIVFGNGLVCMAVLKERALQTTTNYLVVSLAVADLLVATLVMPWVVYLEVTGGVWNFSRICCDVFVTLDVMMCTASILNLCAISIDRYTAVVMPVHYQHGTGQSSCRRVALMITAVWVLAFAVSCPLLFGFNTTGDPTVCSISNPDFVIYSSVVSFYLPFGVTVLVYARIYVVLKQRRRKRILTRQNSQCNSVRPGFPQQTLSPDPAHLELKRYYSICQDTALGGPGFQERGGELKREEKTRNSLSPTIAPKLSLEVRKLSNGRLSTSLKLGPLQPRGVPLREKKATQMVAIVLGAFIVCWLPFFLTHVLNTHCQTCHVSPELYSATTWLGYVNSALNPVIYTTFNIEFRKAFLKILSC
Experiment: Displacement of [3H]Spiperone from recombinant human Dopamine D3 receptor expressed in CHO cell membranes at 10 uM after 120 mins relative to control
Conditions: not given

| SMILES | inhibition [%] |
| --- | --- |
| Fc1ccc(CC[C@H]2CN(Cc3c[nH]c4cc(F)ccc34)CCC2(F)F)cc1 | 52 |
| Fc1ccc2c(CN3CCC(F)(F)[C@@H](CCc4ccccc4F)C3)c[nH]c2c1 | 54 |
| Fc1ccc2c(CN3CCC(F)(F)[C@H](CCc4ccccc4F)C3)c[nH]c2c1 | 65 |
| Fc1ccccc1CCC1CN(Cc2c[nH]c3cc(Cl)ccc23)CCC1(F)F (racemic) | 69 |
| COc1ccc2[nH]cc(CN3CCC(F)(F)C(CCc4ccccc4)C3)c2c1 (racemic) | < 50 |

Test system: not listed separately
Experiment: Displacement of [3H]Spiperone from recombinant human Dopamine D4.4 receptor expressed in CHO-K1 cell membranes after 120 mins
Conditions: not given

| SMILES | IC50 [nM] | Ki [nM] |
| --- | --- | --- |
| COc1ccc2c(CN3CCC(F)(F)[C@@H](CCc4ccc(F)cc4)C3)c[nH]c2c1 | 620 | 170 |
| Fc1ccccc1CC[C@@H]1CN(Cc2c[nH]c3cc(Cl)ccc23)CCC1(F)F | 190 | 53 |
| Fc1ccc(CC[C@H]2CN(Cc3c[nH]c4cc(F)ccc34)CCC2(F)F)cc1 | 320 | 89 |
| Fc1ccc2c(CN3CCC(F)(F)[C@H](CCc4ccccc4)C3)c[nH]c2c1 | 23 | 6.3 |
| FC1(F)CCN(Cc2c[nH]c3cc(Cl)ccc23)C[C@H]1CCc1ccccc1 | 64 | 17.7 |
| Fc1ccc2[nH]cc(CN3CCC(F)(F)[C@H](CCc4ccccc4)C3)c2c1 | 59 | 16.4 |
| Fc1ccc2c(CN3CCC(F)(F)[C@@H](CCc4ccccc4F)C3)c[nH]c2c1 | 490 | 140 |
| COc1ccc2c(CN3CCC(F)(F)[C@@H](CCc4cccc(F)c4)C3)c[nH]c2c1 | 530 | 150 |
| COc1ccc2cc(CN3CCC(F)(F)[C@H](CCc4ccccc4)C3)c(OC)nc2c1 | 88 | 24 |
| Fc1ccc2c(CN3CCC(F)(F)[C@H](CCc4ccccc4F)C3)c[nH]c2c1 | 14.1 | 3.9 |
| FC1(F)CCN(Cc2ccc(Cl)cc2)CC1CCc1ccccc1 (racemic) | 760 | 210 |
| Fc1ccccc1CCC1CN(Cc2c[nH]c3cc(Cl)ccc23)CCC1(F)F (racemic) | 55 | 15.3 |
| COc1ccc(CCC2CN(Cc3c[nH]c4cc(F)ccc34)CCC2(F)F)cc1 (racemic) | 480 | 130 |
| COc1ccc(CN2CCC(F)(F)C(CCc3ccccc3)C2)cc1F (racemic) | 110 | 31 |
| Fc1ccc(CCC2CN(Cc3ccc(Cl)cc3)CCC2(F)F)cc1 (racemic) | 65 | 17.9 |
| COc1ccc(CN2CCC(F)(F)C(CCc3ccccc3)C2)cc1 (racemic) | 430 | 120 |
| COc1ccccc1CCC1CN(Cc2c[nH]c3cc(F)ccc23)CCC1(F)F (racemic) | 170 | 48 |
| FC1(F)CCN(Cc2cccc3cc[nH]c23)CC1CCc1ccccc1 (racemic) | 300 | 84 |
| COc1ccc2[nH]cc(CN3CCC(F)(F)C(CCc4ccccc4)C3)c2c1 (racemic) | 720 | 200 |
| COc1ccccc1CCC1CN(Cc2ccc(Cl)cc2)CCC1(F)F (racemic) | 230 | 63 |

Test system: not listed separately
Experiment: Displacement of [3H] Spiperone from recombinant human Dopamine D4.4 receptor expressed in CHO-K1 cell membranes at 1 uM after 120 mins relative to control
Conditions: not given

| SMILES | inhibition [%] |
| --- | --- |
| Fc1ccccc1CC[C@@H]1CN(Cc2c[nH]c3cc(Cl)ccc23)CCC1(F)F | 84 |
| Fc1ccc(CC[C@H]2CN(Cc3c[nH]c4cc(F)ccc34)CCC2(F)F)cc1 | 75 |
| Fc1ccc2c(CN3CCC(F)(F)[C@H](CCc4ccccc4)C3)c[nH]c2c1 | 79 |
| FC1(F)CCN(Cc2c[nH]c3cc(Cl)ccc23)C[C@H]1CCc1ccccc1 | 59 |
| Fc1ccc2[nH]cc(CN3CCC(F)(F)[C@H](CCc4ccccc4)C3)c2c1 | 66 |
| Fc1ccc2c(CN3CCC(F)(F)[C@@H](CCc4ccccc4F)C3)c[nH]c2c1 | 66 |
| COc1ccc2c(CN3CCC(F)(F)[C@@H](CCc4cccc(F)c4)C3)c[nH]c2c1 | 62 |
| COc1ccc2cc(CN3CCC(F)(F)[C@H](CCc4ccccc4)C3)c(OC)nc2c1 | 53 |

Test system: not listed separately
Experiment: Drug uptake in rat brain at 0.25 mg/kg, iv administered through cassette dosing after 0.25 hrs by LC/MS/MS analysis
Type: ADME, organism-based
Conditions: brain, read-out: Drug uptake

| SMILES | concentration at 0.25 h [ng/g] |
| --- | --- |
| Fc1ccccc1CC[C@@H]1CN(Cc2c[nH]c3cc(Cl)ccc23)CCC1(F)F | 23.5 |
| Fc1ccc2c(CN3CCC(F)(F)[C@H](CCc4ccccc4)C3)c[nH]c2c1 | 100 |
| Fc1ccc2c(CN3CCC(F)(F)[C@H](CCc4ccccc4F)C3)c[nH]c2c1 | 38.9 |

Test system: not listed separately
Experiment: Plasma concentration in rat at 0.25 mg/kg, iv administered through cassette dosing after 0.25 hrs by LC/MS/MS analysis
Type: ADME, organism-based
Conditions: not given

| SMILES | concentration at 0.25 h [ng/mL] |
| --- | --- |
| Fc1ccccc1CC[C@@H]1CN(Cc2c[nH]c3cc(Cl)ccc23)CCC1(F)F | 54.8 |
| Fc1ccc2c(CN3CCC(F)(F)[C@H](CCc4ccccc4)C3)c[nH]c2c1 | 28.6 |
| Fc1ccc2c(CN3CCC(F)(F)[C@H](CCc4ccccc4F)C3)c[nH]c2c1 | 30.4 |

Molecular target: D(2) dopamine receptor (Homo sapiens) (UniProt P14416)
Sequence (P14416 whole entry): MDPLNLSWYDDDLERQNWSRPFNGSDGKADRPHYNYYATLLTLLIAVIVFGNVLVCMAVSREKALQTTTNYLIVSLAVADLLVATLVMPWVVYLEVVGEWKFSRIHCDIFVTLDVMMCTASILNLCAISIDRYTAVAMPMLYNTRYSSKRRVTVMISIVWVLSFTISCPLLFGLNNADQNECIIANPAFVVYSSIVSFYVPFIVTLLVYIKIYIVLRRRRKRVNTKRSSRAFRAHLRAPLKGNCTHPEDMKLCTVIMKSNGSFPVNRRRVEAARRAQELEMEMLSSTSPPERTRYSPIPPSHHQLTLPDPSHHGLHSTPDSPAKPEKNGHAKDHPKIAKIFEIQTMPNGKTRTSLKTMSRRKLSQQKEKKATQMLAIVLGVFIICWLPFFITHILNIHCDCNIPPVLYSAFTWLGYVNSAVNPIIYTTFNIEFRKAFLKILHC
Experiment: Displacement of [3H]Spiperone from recombinant human Dopamine D2S receptor expressed in CHO cell membranes at 10 uM after 120 mins relative to control
Conditions: not given

| SMILES | inhibition [%] |
| --- | --- |
| Fc1ccc(CC[C@H]2CN(Cc3c[nH]c4cc(F)ccc34)CCC2(F)F)cc1 | < 50 |
| Fc1ccc2c(CN3CCC(F)(F)[C@@H](CCc4ccccc4F)C3)c[nH]c2c1 | < 50 |
| Fc1ccc2c(CN3CCC(F)(F)[C@H](CCc4ccccc4F)C3)c[nH]c2c1 | < 50 |
| Fc1ccccc1CCC1CN(Cc2c[nH]c3cc(Cl)ccc23)CCC1(F)F (racemic) | 57 |
| COc1ccc2[nH]cc(CN3CCC(F)(F)C(CCc4ccccc4)C3)c2c1 (racemic) | 52 |

Molecular target: D(1B) dopamine receptor (Homo sapiens) (UniProt P21918)
Sequence (P21918 whole entry): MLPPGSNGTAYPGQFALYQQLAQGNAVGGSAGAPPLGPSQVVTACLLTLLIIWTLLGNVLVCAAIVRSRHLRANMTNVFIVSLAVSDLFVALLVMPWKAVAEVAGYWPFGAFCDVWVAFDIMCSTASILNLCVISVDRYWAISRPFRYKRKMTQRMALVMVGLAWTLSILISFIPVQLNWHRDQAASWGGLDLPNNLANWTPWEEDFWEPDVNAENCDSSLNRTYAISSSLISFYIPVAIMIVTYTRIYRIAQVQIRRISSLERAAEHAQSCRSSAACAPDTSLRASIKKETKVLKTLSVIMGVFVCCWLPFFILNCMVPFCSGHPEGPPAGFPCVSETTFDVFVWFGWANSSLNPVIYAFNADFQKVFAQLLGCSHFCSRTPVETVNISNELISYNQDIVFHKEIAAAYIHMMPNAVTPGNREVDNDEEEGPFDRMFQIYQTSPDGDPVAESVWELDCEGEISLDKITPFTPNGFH
Experiment: Displacement of [3H]SCH-23390 from recombinant human Dopamine D5 receptor expressed in CHO cell membranes at 10 uM after 120 mins relative to control
Conditions: not given

| SMILES | inhibition [%] |
| --- | --- |
| Fc1ccc(CC[C@H]2CN(Cc3c[nH]c4cc(F)ccc34)CCC2(F)F)cc1 | < 50 |
| Fc1ccc2c(CN3CCC(F)(F)[C@@H](CCc4ccccc4F)C3)c[nH]c2c1 | < 50 |
| Fc1ccc2c(CN3CCC(F)(F)[C@H](CCc4ccccc4F)C3)c[nH]c2c1 | < 50 |
| Fc1ccccc1CCC1CN(Cc2c[nH]c3cc(Cl)ccc23)CCC1(F)F (racemic) | < 50 |
| COc1ccc2[nH]cc(CN3CCC(F)(F)C(CCc4ccccc4)C3)c2c1 (racemic) | < 50 |

Test system: not listed separately
Experiment: Unbound fraction in human plasma by HPLC/MS based equilibrium dialysis method
Type: ADME, cell-free
Conditions: not given

| SMILES | fraction unbound |
| --- | --- |
| Fc1ccccc1CC[C@@H]1CN(Cc2c[nH]c3cc(Cl)ccc23)CCC1(F)F | 0.005 |
| Fc1ccc2c(CN3CCC(F)(F)[C@H](CCc4ccccc4)C3)c[nH]c2c1 | 0.001 |
| Fc1ccc2c(CN3CCC(F)(F)[C@H](CCc4ccccc4F)C3)c[nH]c2c1 | 0.005 |

Molecular target: D(2) dopamine receptor (Homo sapiens) (UniProt P14416)
Experiment: Displacement of [3H]Spiperone from recombinant human Dopamine D2L receptor expressed in CHO cell membranes at 10 uM after 120 mins relative to control
Conditions: not given

| SMILES | inhibition [%] |
| --- | --- |
| Fc1ccc(CC[C@H]2CN(Cc3c[nH]c4cc(F)ccc34)CCC2(F)F)cc1 | < 50 |
| Fc1ccc2c(CN3CCC(F)(F)[C@@H](CCc4ccccc4F)C3)c[nH]c2c1 | 57 |
| Fc1ccc2c(CN3CCC(F)(F)[C@H](CCc4ccccc4F)C3)c[nH]c2c1 | 51 |
| Fc1ccccc1CCC1CN(Cc2c[nH]c3cc(Cl)ccc23)CCC1(F)F (racemic) | < 50 |
| COc1ccc2[nH]cc(CN3CCC(F)(F)C(CCc4ccccc4)C3)c2c1 (racemic) | < 50 |
